Test results as given in ChEMBL document CHEMBL1151357, “Inhibition of Plant Growth by Phenethylamines and Tetrahydroisoquinolines” (1981).
The source made the active and inactive calls. The calls are words filed in the database; no cut-off is given here.

What was measured:
Phaseolus vulgaris [1] = assay: Growth inhibition of pinto bean plants assessed as inhibition of second inter node elongation at 150 ug after 4 days relative to control; type: functional
Phaseolus vulgaris [2] = assay: Growth promoting activity in pinto bean plants at =>150 ug after 4 days; type: functional, organism-based
Phaseolus vulgaris [3] = assay: Growth inhibition of pinto bean plants assessed as inhibition of second inter node elongation at 50 ug after 4 days relative to control; type: functional
Phaseolus vulgaris [4] = assay: Phytotoxicity against pinto bean plants assessed as induction of necrosis at 150 ug after 4 days; type: functional, organism-based
Phaseolus vulgaris [5] = assay: Phytotoxicity against pinto bean plants assessed as induction of necrosis at 50 ug after 4 days; type: functional, organism-based
Sorghum bicolor = assay: Growth inhibition of Rio sorghum seedlings assessed as shoot growth from seed coat to tip of second leaf at 1 mg/ml after 4 days; type: functional

| SMILES | inhibition (INH) (Phaseolus vulgaris [1]) [%] | Activity (Phaseolus vulgaris [2]) | inhibition (INH) (Phaseolus vulgaris [3]) [%] | Activity (Phaseolus vulgaris [4]) | Activity (Phaseolus vulgaris [5]) | Activity (Sorghum bicolor) [mm] |
| --- | --- | --- | --- | --- | --- | --- |
| CN1CCc2cc3c(c(O)c2C1)OCO3.Cl | 0 | Active | 0 | – | – | – |
| COc1cc([C@@H](O)[C@H](C)N)cc(OC)c1OC | – | – | – | Active | – | – |
| COc1cc2c(c(O)c1OC)[C@H](C)[N+](C)(C)CC2.[I-] | 51 | – | 0 | – | Active | – |
| COc1cc2c(c(OC)c1OC)[C@H](C)[N+](C)(C)CC2.[I-] | 51 | – | 26 | – | Active | – |
| COc1cc2c(cc1O)CCN[C@H]2C.Cl [SALSOLINE HYDROCHLORIDE] | 51 | – | 26 | – | – | – |
| CC1(C(=O)O)NCCc2cc(O)c(O)cc21 (stereo unspecified) | 0 | Active | 51 | – | – | – |
| COc1cc2c(c(OC)c1OC)CNCC2.Cl [ANHALININE HYDROCHLORIDE] | 100 | – | 0 | – | – | – |
| COc1cc2c(c(OC)c1OC)C(O)CNC2 (stereo unspecified) | 0 | – | 0 | – | – | – |
| COc1cc2c(c(O)c1OC)[C@H](C)N(C)CC2.Cl [PELLOTINE HYDROCHLORIDE] | 0 | – | 26 | – | – | – |
| COc1cc2c(c(OC)c1OC)CNCC2 | – | – | – | Active | Active | – |
| C[N+](C)(C)CCc1ccc(O)cc1.[I-] [CANDICINE IODIDE] | 76 | – | 76 | Active | Active | 33.22 |
| COc1cc(CC[N+](C)(C)C)cc(OC)c1OC.[I-] [TRICHOCERINE METHYL IODIDE] | 76 | – | 76 | Active | Active | 36.22 |
| COc1ccc2c(c1OC)C(C)N(C)CC2.Cl (racemic) | 100 | – | 26 | Active | – | – |
| COc1cc([C@@H](O)[C@H](C)N)cc(OC)c1OC.O=C(O)C(=O)O | 0 | – | 26 | – | – | – |
| CI.COc1cc2c(c(OC)c1OC)CNCC2 [ANHALININE METHYLIODIDE] | 100 | – | 100 | – | – | – |
| COc1cc(CCN)cc(O)c1OC.Cl | 76 | – | 76 | Active | Active | – |

| SMILES | inhibition (INH) (Phaseolus vulgaris [1]) [%] | Activity (Phaseolus vulgaris [2]) | inhibition (INH) (Phaseolus vulgaris [3]) [%] | Activity (Phaseolus vulgaris [4]) | Activity (Phaseolus vulgaris [5]) | Activity (Sorghum bicolor) [mm] |
| --- | --- | --- | --- | --- | --- | --- |
| COc1cc(CCn2cccc2C(=O)O)cc(OC)c1OC [PEYONINE] | – | – | 0 | – | – | – |
| COc1cc([C@@H](O)[C@H](C)N)cc(OC)c1OC.Cl | 26 | – | 26 | – | – | – |
| Cl.NCCc1ccc(O)c(O)c1 [DOPAMINE HYDROCHLORIDE] | 0 | – | 26 | – | – | 40.44 |
| COc1cc(CCN)cc(OC(=O)c2ccccc2)c1OC.Cl | 0 | – | 51 | – | – | – |
| O=C1CCC2(C(=O)O)c3cc(O)c(O)cc3CCN12 (stereo unspecified) | 26 | Active | 26 | – | – | – |
| COc1c(OC(=O)c2ccccc2)c(OC(=O)c2ccccc2)cc2c1C(C)NCC2.Cl (stereo unspecified) | 26 | – | 26 | – | – | – |
| COc1cc2c(cc1OC)[C@H](C)N(C)CC2.Cl [CARNEGINE HYDROCHLORIDE] | 100 | – | 100 | – | Active | – |
| COC(=O)c1cccn1CCc1cc(OC)c(OC)c(OC)c1 [PEYONINE METHYL ESTER] | – | – | 0 | – | – | – |
| COc1cc([C@@H](O)[C@H](C)N)cc(O)c1OC.O=C(O)C(=O)O | 26 | – | 0 | Active | – | – |
| O=C(O)C1NCCc2cc(O)c(O)cc21 (stereo unspecified) | 26 | Active | 26 | – | – | – |
| Cl.NCC(O)c1cccc(O)c1 (stereo unspecified) [NORPHENYLEPHRINE HYDROCHLORIDE] | – | – | 26 | – | – | – |
| COc1cc([C@@H](O)[C@H](C)N)cc(OC)c1OC.O=C(O)C(O)C(O)C(=O)O | 0 | – | 26 | – | – | – |
| COc1cc(CCn2cccc2)cc(OC)c1OC [DECARBOXYPEYONINE] | 26 | – | 51 | – | – | – |
| Cl.NCCc1cc(O)c(O)cc1O [OXIDOPAMINE HYDROCHLORIDE] | 26 | – | 26 | – | – | – |
| COc1cc2c(c(OC)c1OC)C(C)NCC2.Cl (racemic) | 51 | – | 26 | – | – | – |
